The values below come from patent US20210294217A1, “ACTINIC RAY-SENSITIVE OR RADIATION-SENSITIVE RESIN COMPOSITION, RESIST FILM, PATTERN FORMING METHOD, AND METHOD FOR MANUFACTURING ELECTRONIC DEVICE” (FUJIFILM Corporation, priority 2019, published 2021).

This data set can be described thus: acid dissociation constant pKa determined by computation (ACD/Labs Software Package 1; Gaussian 16 DFT where not calculable). The settings on record: acid generated from photoacid generator B. The text has this:
In the present specification, an acid dissociation constant (pKa) represents a pKa in an aqueous solution, and is specifically a value determined by computation from a value based on a Hammett's substituent constant and database of publicly known literature values, using the following software package 1. Any of the pKa values described in the present specification indicates values determined by computation using the software package.
Software Package 1: Advanced Chemistry Development (ACD/Labs) Software V 8.14 for Solaris (1994-2007 ACD/Labs).
As described above, the pKa in the present specification refers to a value determined by computation from a value based on a Hammett's substituent constant and database of publicly known literature values, using the software package 1, but in a case where the pKa cannot be calculated by the method, a value obtained by Gaussian 16 based on density functional theory (DFT) shall be adopted.
In addition, the pKa in the present specification refers to a “pKa in an aqueous solution” as described above, but in a case where the pKa in an aqueous solution cannot be calculated, a “pKa in a dimethyl sulfoxide (DMSO) solution” shall be adopted.
Furthermore, in the measurement of the acid dissociation constant pKa of an acid generated from the photoacid generator B, specifically, the pKa is a value determined by subjecting a compound formed by substituting each cationic moiety in the compounds B-1 to B-25 with H^+ (for example, in a case of the compound B-1, a compound formed by substituting the triphenylsulfonium cation with H^+) to computation from a value based on a Hammett's substituent constant and database of publicly known literature values, using Software Package 1 of ACD/Labs, as described above. In addition, in a case where pKa could not be calculated by the method, a value obtained by Gaussian 16 based on density functional theory (DFT) was adopted.
In the following table, “pKa1” represents an acid dissociation constant of the first stage, “pKa2” represents an acid dissociation constant of the second stage, and “pKa3” represents an acid dissociation constant of the third stage. A smaller value of pKa means a higher acidity. […]
As for `O=S(=O)(O)NCCOC1CCCC(C(F)(F)S(=O)(=O)O)C1` (centres unmarked) [B-18], the “Difference between acid dissociation constant a1 and acid dissociation constant a2” value is 3.2.
`O=C(O)C1CCCCC1C(=O)OCC(F)C(F)(F)S(=O)(=O)O` (centres unmarked) [B-17]: the “Difference between acid dissociation constant a1 and acid dissociation constant a2” value is 7.24.
Consider `O=C(CC(F)(F)F)NS(=O)(=O)C(F)(F)C(F)(F)C(F)(F)S(=O)(=O)NS(=O)(=O)C(F)(F)F` [B-22], for which the “Difference between acid dissociation constant a1 and acid dissociation constant a2” value was 10.35.
Then `O=C(O)N1CCN(S(=O)(=O)C(F)(F)C(F)(F)C(F)(F)S(=O)(=O)NS(=O)(=O)C(F)(F)F)CC1` [B-13], with 15.11.
As to `O=C(O)C(F)(F)C(F)(F)C(F)(F)C(=O)OC12CC3CC(CC(COC(=O)C(F)(F)S(=O)(=O)O)(C3)C1)C2` [B-3], the “Difference between acid dissociation constant a1 and acid dissociation constant a2” value is on record as 2.92.
Take `O=C(O)CCCOC(=O)C(CS(=O)(=O)O)C(F)(F)F` (centres unmarked) [B-14]: the “Difference between acid dissociation constant a1 and acid dissociation constant a2” value is on record as 3.63.
Regarding `O=C(NS(=O)(=O)C(F)(F)C(F)(F)C(F)(F)S(=O)(=O)NS(=O)(=O)C(F)(F)F)c1cc(C(F)(F)F)cc(C(F)(F)F)c1` [B-24], the “Difference between acid dissociation constant a1 and acid dissociation constant a2” value is reported as 9.95.
Consider `CC1(C)C2CCC1(CS(=O)(=O)NC(=O)C(F)(F)C(F)(F)C(F)(F)F)C(OC(=O)C(F)S(=O)(=O)O)C2` (centres unmarked) [B-8], for which the “Difference between acid dissociation constant a1 and acid dissociation constant a2” value is on record as 2.20.
On to `O=C(OCCCS(=O)(=O)O)C(F)(F)S(=O)(=O)O` [B-6], for which the “Difference between acid dissociation constant a1 and acid dissociation constant a2” value is 4.82.
Consider `O=C(COC(=O)C(F)(F)S(=O)(=O)O)NC(=O)C(F)(F)F` [B-4], for which the “Difference between acid dissociation constant a1 and acid dissociation constant a2” value is given as 9.23.
Then `CS(=O)(=O)NC(=O)C(F)(F)C(F)(F)C(F)(F)C(=O)OCC(F)S(=O)(=O)O` (centres unmarked) [B-5], with 2.55.
